Data from patent publication US20260327211A1, “MODULATORS OF A POTASSIUM CHANNEL AND OF TRPV1 CHANNEL AND USES THEREOF” (Bsense Bio Therapeutics Ltd., priority 2023, published 2026).
pIC50: −log10 of the molar value.

How the values were obtained:
MIA-OA rats = experiment: Dynamic weight bearing in MIA-OA rats; format: in vivo, rat; conditions: 100 mg/kg (naproxen 30 mg/kg), 6 hours post-dose
Description: Monosodium iodoacetate-induced osteoarthritis (MIA-OA): The animals were anaesthetized using an Isoflurane+O2 mixture. Then 50 μl of MIA at a concentration of 60 mg/mL was injected into the right knee joint using a 30 G needle. On study days 13 and 14 following MIA injection, the animals' dynamic weight bearing and response to von Frey filaments were measured.
Dynamic Weight Bearing (DWB): DWB study was performed using the DWB2 apparatus (Bioseb, Paris, France). The rats were placed in a transparent cage containing a matrix comprising around 2000 high-precision force sensors embedded in its floor where they were allowed to move freely. The force sensors measured the weight distribution on each of the four paws of the animal in grams. The animal was filmed from above using a high-definition camera, and the video feed was analyzed in real-time during the test using tracking software, allowing a precise analysis of the animal's posture and hind paws identification. Out of 5 minutes of animal behavior recording, a segment of 2 minutes was analyzed. Once the analysis was completed, the software provided the weight distribution of each hind paw as the main readout and the ratio between the injured and intact hind paws was then calculated.

DRG distribution in rat = format: in vivo; conditions: 8-hour post-dose
5-HT1B = biological target: T1, 5-HT1B (Homo sapiens, UniProt P28222); experiment: Functional selectivity panel, 5-HT1B; format: biochemical
T1 construct: Eurofins DiscoverX, USA
Description: (§1) A broad panel of 78 recombinant targets was tested for pharmacologic activity in vitro through a variety of functional assays (Eurofins DiscoverX, USA), as part of the National Institute of Neurological Disorders and Stroke (NINDS) Preclinical Screening Platform for Pain (PSPP) program. The biological targets for the in vitro profiling have been selected based on avoiding opioid receptor stimulation and targets known to be associated with adverse events or targeted by drugs of abuse. […] For each test, a reference compound was evaluated at the target of interest as a positive control.

HepG2 cells = experiment: HepG2 toxicity, ATPlite; format: cell-based, human; conditions: up to limit of solubility
Description: Cell culture: HepG2 cell-line cells were cultured in EMEM (ATCC 30-2033) medium supplemented with 10% fetal bovine serum (Biological Industries) in a humidified 5% CO2 incubator at 37° C.
ATPlite™ 1step Kit: ATPlite™ 1step kit (PerkinElmer) was used in a 384-wells format to assess potential liver toxicity using HepG2 cells. This is an ATP detection system based on firefly luciferase luminescence for the quantitative evaluation of proliferation and cytotoxicity of cells. ATP is a marker for cell viability because it is present in all metabolically active cells and its concentration declines very rapidly when the cells undergo necrosis or apoptosis.
According to an optimization process done to achieve uniform and consistent screening condition of molecules, the following protocol was established: Cells were seeded in 384-well, black-walled, clear-bottomed, at a density of 4000 cells per well […] and incubated overnight in their normal growth medium. On day two (48 hours before viability measurement), the tested compounds and the positive control were applied to the wells according to the plate design. […] 48 hours later, reconstituted lyophilized substrate solution was added to each well and the sealed 384-well microplate was mixed for 2 minutes at 1100 rpm in an orbital microplate and plates were incubated for 10 minutes in the dark at room temperature. Right after, luminescence was measured in the Tecan plate reader. To estimate the LD50 and LD25 values the data was fitted to sigmoidal regression using Prism-GraphPad. […]

muscarinic m2 receptor = biological target: T2, muscarinic m2 receptor (Homo sapiens, UniProt P08172); experiment: Functional selectivity panel, muscarinic m2 receptor; format: biochemical
T2 construct: Eurofins DiscoverX, USA
Description: as §1

rats = experiment: Modified Irwin test; format: in vivo, rat; conditions: up to 300 mg/kg, male and female
Description: Twenty male and twenty female Sprague Dawley rats from Envigo were used in the study. […] Rats were housed in cages containing BedO'Cob® bedding with Nylabones® for enrichment. All rats were examined, handled, and weighed prior to initiation of the study to ensure adequate health and suitability. During the study, 12/12 light/dark cycles were maintained. The room temperature was maintained between 2° and 23° C. with a relative humidity maintained around 50%. […] The test was performed during the animal's light cycle phase (6 am to 6 μm), with observations targeted to be carried out between 8 am and 2 μm. Each vehicle or dose group contained 8 rats, 4 males and 4 females.
The day prior to assessment, rats were single housed in clean rat polycarbonate cages and food was removed. Animals were allocated to different groups based on body weight, under the concurrent restriction that cage mates could not be in the same treatment groups. […]
On the day of assessment, rats were scored on 39 behaviors (not shown). 1 hour prior to dosing, water was removed from the home cage baseline (BL) and behavioral observations were recorded.
Ten animals were assessed per day over 4 days. One male and one female subject from each treatment group was assessed by the observers in a pre-determined order that differed each day. […]

78 recombinant targets = experiment: In-vitro selectivity panel, 78 targets; conditions: all 9 modulated targets of 78
Description: as §1
In addition, based on efficacious exposures in vivo, the separation from other targets is still greater than 1000-fold, further supporting the specificity of the compound's MOA.

COX-1/2 = experiment: Functional selectivity panel, COX-1/2; format: biochemical; conditions: up to 10 micromolar
Description: as §1

OCT1 = OCT1 (Homo sapiens, UniProt O15245); experiment: Transporter substrate, OCT1; format: in vitro ADME; conditions: role: substrate
Description: (§2) Additionally, compound 760 was tested for its capability to act as a transporter substrate for various transporters, and was not found to be a transporter substrate for any of the tested transporters.

MATE2-K = experiment: Transporter substrate, MATE2-K; format: in vitro ADME; conditions: role: substrate
Description: as §2

OATP1B3 = OATP1B3 (Homo sapiens, UniProt Q9NPD5); experiment: Transporter substrate, OATP1B3; format: in vitro ADME; conditions: role: substrate
Description: as §2

BCRP = experiment: Transporter substrate, BCRP; format: in vitro ADME; conditions: role: substrate
Description: as §2

Sequence of OATP1B3 (Q9NPD5 whole entry): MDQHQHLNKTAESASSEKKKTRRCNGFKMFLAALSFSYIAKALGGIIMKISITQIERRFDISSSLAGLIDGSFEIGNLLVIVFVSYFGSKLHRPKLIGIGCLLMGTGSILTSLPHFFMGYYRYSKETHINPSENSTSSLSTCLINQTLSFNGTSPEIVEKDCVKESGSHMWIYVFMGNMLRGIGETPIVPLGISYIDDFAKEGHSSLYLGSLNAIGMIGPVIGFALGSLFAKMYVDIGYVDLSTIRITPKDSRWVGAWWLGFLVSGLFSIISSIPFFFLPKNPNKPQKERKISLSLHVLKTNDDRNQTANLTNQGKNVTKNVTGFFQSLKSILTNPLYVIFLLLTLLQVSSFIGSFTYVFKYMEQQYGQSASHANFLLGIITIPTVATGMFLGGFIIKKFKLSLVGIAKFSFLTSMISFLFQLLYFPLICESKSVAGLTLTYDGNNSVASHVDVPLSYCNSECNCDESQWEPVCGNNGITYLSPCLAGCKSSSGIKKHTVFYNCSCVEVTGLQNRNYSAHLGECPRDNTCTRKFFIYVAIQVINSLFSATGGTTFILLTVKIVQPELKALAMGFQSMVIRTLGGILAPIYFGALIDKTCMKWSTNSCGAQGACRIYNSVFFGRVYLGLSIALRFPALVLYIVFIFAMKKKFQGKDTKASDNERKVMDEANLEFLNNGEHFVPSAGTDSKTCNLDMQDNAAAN
Sequence of OCT1 (O15245 whole entry): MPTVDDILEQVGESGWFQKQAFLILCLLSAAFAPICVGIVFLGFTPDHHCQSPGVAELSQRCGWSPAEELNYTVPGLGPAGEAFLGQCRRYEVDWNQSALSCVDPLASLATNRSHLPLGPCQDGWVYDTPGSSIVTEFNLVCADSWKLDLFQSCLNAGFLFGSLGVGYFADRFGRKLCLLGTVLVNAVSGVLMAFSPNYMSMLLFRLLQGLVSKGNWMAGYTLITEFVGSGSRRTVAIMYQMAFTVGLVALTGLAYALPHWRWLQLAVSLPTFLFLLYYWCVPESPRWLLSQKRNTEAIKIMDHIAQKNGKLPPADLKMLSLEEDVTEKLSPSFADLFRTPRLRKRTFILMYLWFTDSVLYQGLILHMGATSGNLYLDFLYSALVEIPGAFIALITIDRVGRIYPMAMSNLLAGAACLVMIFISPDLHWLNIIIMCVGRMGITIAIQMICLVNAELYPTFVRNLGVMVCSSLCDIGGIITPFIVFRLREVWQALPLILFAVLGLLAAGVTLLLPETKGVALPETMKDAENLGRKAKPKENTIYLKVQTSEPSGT
T1 sequence (P28222 whole entry): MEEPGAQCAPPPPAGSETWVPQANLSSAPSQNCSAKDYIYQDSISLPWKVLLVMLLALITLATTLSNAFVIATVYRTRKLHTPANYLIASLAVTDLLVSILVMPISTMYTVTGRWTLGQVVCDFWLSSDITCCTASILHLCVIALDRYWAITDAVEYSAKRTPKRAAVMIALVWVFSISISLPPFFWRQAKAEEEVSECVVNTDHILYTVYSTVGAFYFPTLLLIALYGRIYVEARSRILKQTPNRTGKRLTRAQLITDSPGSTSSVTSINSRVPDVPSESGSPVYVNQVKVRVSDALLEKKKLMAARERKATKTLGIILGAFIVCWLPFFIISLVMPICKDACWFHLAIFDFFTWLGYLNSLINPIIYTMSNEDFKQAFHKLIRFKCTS
T2 sequence (P08172 whole entry): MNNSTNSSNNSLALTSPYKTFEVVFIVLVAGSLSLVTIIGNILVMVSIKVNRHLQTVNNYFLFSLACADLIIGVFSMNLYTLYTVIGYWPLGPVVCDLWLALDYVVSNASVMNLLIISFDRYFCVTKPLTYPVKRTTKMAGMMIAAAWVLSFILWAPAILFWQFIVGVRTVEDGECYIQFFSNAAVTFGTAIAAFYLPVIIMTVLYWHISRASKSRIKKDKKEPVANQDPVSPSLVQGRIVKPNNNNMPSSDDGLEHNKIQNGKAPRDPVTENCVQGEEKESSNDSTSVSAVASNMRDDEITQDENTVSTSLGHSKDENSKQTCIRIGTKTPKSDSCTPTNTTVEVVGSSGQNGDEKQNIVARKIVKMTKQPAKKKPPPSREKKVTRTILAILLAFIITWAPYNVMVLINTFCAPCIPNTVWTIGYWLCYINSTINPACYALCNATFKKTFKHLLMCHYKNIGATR

| Compound | Reversal of weight bearing changes (MIA-OA rats) [%] | Free exposure in DRG (DRG distribution in rat) [nM] | pIC50 (5-HT1B) | HepG2 toxicity (HepG2 cells) | pIC50 (muscarinic m2 receptor) | Modified Irwin FOB (rats) | pIC50 (78 recombinant targets) | Effect on COX-1/2 (COX-1/2) | OCT1 substrate (OCT1) | MATE2-K substrate (MATE2-K) | OATP1B3 substrate (OATP1B3) | BCRP substrate (BCRP) |
| --- | --- | --- | --- | --- | --- | --- | --- | --- | --- | --- | --- | --- |
| O=C(Cc1cncc(-n2cc(Cl)c3cc(Cl)cc(Cl)c32)c1)N[C@@H]1COC[C@H]1O [Compound 661] | 44 | 0.012 | 5.00 | no evidence of toxicity up to the compound's limit of solubility | 5.30 | no effects up to 300 mg/kg | < 5.85 | – | – | – | – | – |
| O=C(Cc1nccc(-n2cc(Cl)c3cc(Cl)cc(Cl)c32)n1)NC1COCC1O (stereo not drawn) [Compound 760] | – | – | – | – | – | – | – | no effect | not a transporter substrate | not a transporter substrate | not a transporter substrate | not a transporter substrate or a poor substrate |
